Laboratory results from patent publication US11014934B2, “Antiseptic drug” (AO “TATKHIMFARMPREPARATY”, priority 2017, dated 2021).
Like-named read-outs stand apart in the source and are kept apart here.

Key:
[1] = tested on: P.aeruginosa in the biofilm; assay: Antibacterial activity against cells immersed in a biofilm matrix (CFU, drop plate); assay type: cell-based; details: 24 hours
Procedure: To determine the effectiveness of the antibiotic against bacteria in […], bacteria were grown in Basal medium for 3 days at a temperature of 37° C. without swinging to obtain a dense biofilm [A. R Kayumov, Khakimullina E., Sharafutdinov I, Trizna E., Latypova L., Lien Thi, Margulis A., Bogachev M, Kurbangalieva A. Inhibition of biofilm formation in Bacillus subtilis by new halogenated furanoses. J. Antibiotics.—2014.—V. 68.—No 5.—P. 297-301.]. Then the biofilm was washed with a sterile 0.9% NaCl solution and fresh sterile medium was poured. Antiseptics were added to concentrations (1-16)×MBC (minimum bactericidal concentration) and incubated for 24 hours. Then the culture fluid was removed from the wells, washed once with 0.9% NaCl solution to remove non-adherent cells, and cell viability in biofilms was evaluated by counting CFU by Drop plate analysis [B. Herigstad, M Hamilton, J. Heersink How to optimize the drop plate method for enumerating bacteria. J Microbiol Methods.—2001.—V. 44.—P. 121-129]. To do this, the biofilm was mechanically removed from the surface and homogenized in 0.9% NaCl by pipetting and ultrasonic treatment. Then, serial 10-fold dilutions of the bacterial suspension in 0.9% NaCl were prepared, and 5 μI of each suspension were transferred to plates with dense nutrient medium. CFU was counted from drops containing 5-10 colonies.
The results of the study of antimicrobial activity against cells of the studied strains immersed in the biofilm matrix, in comparison with miramistin and benzalkonium chloride, are presented in FIGS. 1 and 2.

[2] = tested on: Stylonychia mytilus; assay: Antiprotozoal activity by death of protozoa; assay type: cell-based; details: for IC50: read-out: IC50 (95% confidence interval)
Procedure: Evaluation of the antiprotozoal activity of compound I was determined by the viability of the protozoa genus of hypotrichs Stylonychia mytilus in a nutrient medium in the presence of the studied substances. A mother liquor of compound I (10 mg/ml) was prepared in a mixture of DMSO and 96% ethanol (1:1). A 1% aqueous solution of DMSO and ethyl alcohol served as a negative control, and miramistin, benzalkonium chloride, and chlorhexidine were used as reference preparations. Then, from the mother liquors by repeated dilutions with water, working solutions were prepared corresponding to doses of 5; 10; 20; 25; 50; 75; 100 and 150 μg/ml. 10 μl of culture medium with protozoa and 10 μl of a solution of the test substance were applied to a chamber slide. The experiment was done in five replicates.
Slides were examined under a light microscope, antiprotozoal activity of substances (MIC and IC50) were determined by the death of protozoa. The Hill regression model with 5 parameters was used for the analysis.

[3] = tested on: Candida albicans RCPF Y-401/NCTC-885-653; assay: Antifungal activity, 2-fold serial dilutions in Saburo glucose broth; assay type: cell-based, C. albicans; details: for MIC: Candida albicans
Procedure: (§1) The study of the antifungal activity of compound I in vitro was carried out in accordance with [Metodicheskiye rekomendatsii No 2. Mikologicheskoye issledovaniye ob″yektov okruzhayushchey sredy i opredeleniye protivogribkovoy aktivnosti razlichnykh veshchestv.—GOU DPO SPbMAPO NII meditsinskoy mikologii im. P. N. Kashkina, GBOU VPO SZGMU im. I. I. Mechnikova Minzdrava. SPb.: Izd. Dom SPbMAPO.—2008.—S. 16. Methodological recommendations No 2. Mycological examination of environmental objects and determination of antifungal activity of various substances.—State Educational Institution of St. Petersburg Medical Academy of Postgraduate Education with Scientific Research Institute of Medical Mycology named after P. N. Kashkin, State Educational Institution of Higher Professional Education North-West State Medical University named after I. I. Mechnikov, Ministry of Health. St. Petersburg.:: Publishing House SPbMAPO.—2008.—P. 16].
(§2) The study of the antifungal activity of substances in vitro was carried out in a liquid nutrient medium (Saburo glucose broth) in biological tubes by the method of 2-fold serial dilutions. In test tubes, three parallel series of dilutions of the test substance were prepared in the following way.
Saburo's liquid broth was sterilely poured in 3 ml into each tube; 4.5 ml was poured into the first tube of the row. A total of 14 tubes were used in a row; of which the last was a control one. 400 mg of the test substance was taken as a standard sample and dissolved in 10 ml of distilled water. Thus, the initial dilution contained the test substance at a concentration of 40000 ug/ml. Then 0.5 ml of this dilution was introduced into the first test tube of the series (with 4.5 ml of medium), thereby diluting the concentration of the substance by another 10 times. Therefore, the first tube of the series contained 4000 μg/ml of the test substance. Then, 3 ml of the solution was taken from the first tube and transferred to the second tube, thoroughly purged, then 3 ml of the solution were taken again from the second tube and transferred to the third tube, etc.; from the penultimate tube, 3 ml was poured. […] The growth of cultures was initially assessed visually, comparing the growth of microorganisms in the presence of test compounds with the growth of culture without them. […] The first lowest concentration of the substance (from a series of consecutive dilutions), where the growth of fungi was suppressed or not visually determined, was considered the minimum inhibitory concentration (MIC).
(§3) For the preparation of inoculum, were respectively used pure (2-5) days cultures of yeast and mycelial fungi, grown on Saburo's dense nutrient broth. […] The inoculum was used within 15 minutes after preparation; the purity of the fungal strains was monitored before each experiment. […]

[4] = tested on: Rhizopus oryzae RCPF F-1537/1722; assay: as above; assay type: cell-based, Rh. oryzae; details: for MIC: read-out: The value of the MIC
Procedure: as §1, §2
Saburo's liquid broth was sterilely poured in 3 ml into each tube; 4.5 ml was poured into the first tube of the row. A total of 14 tubes were used in a row; of which the last was a control one. […] The growth of cultures was initially assessed visually, comparing the growth of microorganisms in the presence of test compounds with the growth of culture without them. […] The first lowest concentration of the substance (from a series of consecutive dilutions), where the growth of fungi was suppressed or not visually determined, was considered the minimum inhibitory concentration (MIC).
as §3

[5] = death of protozoa, Hill regression
[6] = C. albicans RCPF Y-401/NCTC-885-653

| Compound | excess of MBC giving a decrease in the number of CFU by 3 orders of magnitude [1] | IC50 [2, 5] [µg/mL] | MIC ([2]; death of protozoa, read-out: MIC) [µg/mL] | MIC ([3]; NCTC885, C. albicans RCPF Y-401/NCTC-885-653, read-out: The value of the MIC) [µg/mL] | MIC ([4]; Rh. nigricans RCPFF-l537/1722) [µg/mL] | MIC [2] [µg/mL] | IC50 [2] [µg/mL] | The value of the MIC [3, 6] | MIC ([3]; NCTC885, read-out: The value of the MIC) [µg/mL] | MIC [4] [µg/mL] | MIC ([2]; death of protozoa) [µg/mL] | IC50 (95% confidence interval) [2, 5] | The value of the MIC ([4]; Rh. nigricans RCPFF-l537/1722) [µg/mL] |
| --- | --- | --- | --- | --- | --- | --- | --- | --- | --- | --- | --- | --- | --- |
| CCCCCCCCCCCC[N+](C)(C)Cc1cnc(C[N+](C)(C)CCCCCCCCCCCC)c2c1COC(CC)O2 (stereo not shown) [Compound I, 5,8-(Bis(methylene (N, N-dimethyl-N-dodecylammonium))-2-ethyl-4H-[1,3]dioxino [4,5-c]pyridiniumdichloride] | 4-8 times | 59 | 25 | 62.5 | 62.5 | – | – | – | – | – | – | – | – |
| CCCCCCCCCCCCCC(=O)NCCC[N+](C)(C)Cc1ccccc1.O.[Cl-] [Miramistin, benzyldimethyl [3-(myristoylamino)propyl]-ammonium chloride monohydrate] | 16 times | – | – | – | – | 50 | 92 | inactive | > 500 | 62.5 | – | – | – |
| alkyldimethyl(phenylmethyl) ammonium chloride [Benzalconium chloride] | 16 times | – | – | – | – | – | – | 7.8 µg/mL | – | – | 30 | 67 (66-69) μg/ml | 15.6 |
